US20250073180A1, “COMPOSITIONS COMPRISING NON-RACEMIC MIXTURES OF R- AND S-1,3-BUTANEDIOL AND USES THEREOF” (priority 2022, published 2025)

What was measured:
human volunteers = conditions: bolus doses of 0.5 g/kg bw or 0.7 g/kg bw; cited from earlier work
rats = conditions: dietary levels of 1.0, 3.0 and 10% for two years; cited from earlier work
[1] = ECHA registration dossiers; cited from earlier work
dogs = conditions: dietary levels of 0.5, 1.0 and 3.0% for two years; cited from earlier work
[2] = 25 g/day for 28 consecutive days; cited from earlier work
human subjects [3] = assay: Biphasic Alcohol Effects Scale (BAES) questionnaire, acute pilot consumer study; assay type: in vivo; conditions: 60 minutes following consumption of 20 g in a beverage; n=3 per group
Method: (§1) Two scales were utilized: subjective effects with Biphasic Alcohol Effects Scale (BAES), a validated tool to measure the effects of drinking alcohol (Martin, C. S., et al. 1993. Alcoholism, Clinical and Experimental Research 17 (1): 140-46), and GI Tolerance with a Modified Beverage Tolerability Questionnaire (m-BTQ; Chen., 0. T., et al. 2021. Nutrients 13 (6): 2066). Participants were asked to fast for at least 2 hours before consuming the product, and complete the m-BTQ and BAES at 60 minutes following the consumption of the product.
(§2) The study population was 6 individuals between 25-40 years old. Questionnaires for the m-BTQ and BAES are provided below in Tables 1 and 2.
(§3) The six participants were between 25-40 years old, were 100% Caucasian and all (100%) identified as male.

human subjects [4] = assay: Modified Beverage Tolerability Questionnaire (m-BTQ), acute pilot consumer study; assay type: in vivo
Method: as §1, §2, §3

## CC(O)CCO (stereo not drawn) [1,3-butanediol]
Human volunteers
  Side effects of bolus doses: nausea, euphoria and dizziness
rats
  Adverse effects attributable to ingestion: no adverse effects attributable to the ingestion
[1]
  Acute oral, inhalation and dermal toxicity: low
dogs
  Adverse effects attributable to ingestion: no adverse effects attributable to the ingestion

## CCCCCC(=O)OCC[C@@H](C)OC(=O)CCCCC [BH-BD, bis-hexanoyl (R)-1,3-butanediol]
[2]
  Side effects and adverse events: only mild side effects and no adverse events

## C[C@@H](O)CCO [R-1,3-butanediol]
Human subjects [3]
  Mean BAES-SED Composite Score: 22.3
  Mean BAES-STIM Composite Score: 41.7
Human subjects [4]; 60 minutes following consumption of 20 g in a beverage, fasted at least 2 hours, n=3 per group
  Mean Composite Tolerability Score (m-BTQ): 8
Human subjects [4]; acute use, 20 g beverage, all participants
  Tolerability (in words): well tolerated by all participants
